Results as given in patent publication US8273754B2, “Substituted 1H-pyrazolo[3,4-D]pyrimidine-6-amine compounds” (ArQule, Inc., priority 2008, dated 2012).
Where two headings read alike, the source gives them in different places.

Test system: cancer cells
Experiment: MTS cell growth inhibition assay (72 hours)
Assay type: cell-based
Protocol: Cells were maintained at 37° C., 5% CO2 in DMEM media supplemented with 1% fetal bovine serum, penicillin/streptomycin and fungizone (Invitrogen). Cells were seeded into 96-well tissue culture plates at 3000 per well and cultured at 37° C. for 18 hours. Test compounds were dissolved and diluted to 300× in DMSO then further diluted 1:40 in DMEM before addition to cells (1:7.5 dilution). Cells were incubated with test compounds for 72 hours followed by incubation with tetrazolium compound (3-(4,5-dimethylthiazol-2-yl)-5-(3-carboxymethoxyphenyl)-2-(4-sulfophenyl)-2H-tetrazolium, inner salt; MTS) and the electron coupling reagent, phenazine methosulfate (PMS) for 4 hours. […] The ability of compounds to inhibit cell growth in this assay is correlated with the reduction of dehydrogenase enzyme activity found in metabolically active cells. The measurement of the absorbance of the formazan was assessed using an ENVISION™ (Perkin Elmer) microplate reader at 492 nm. The calculated IC50 value is the concentration of the test compound that causes a 50% decrease in the absorbance. […] A=>79% inhibition, B=>50 to 79% inhibition, C=<50% inhibition.

[1] = Homo sapiens, DLD-1, 72 h, DLD-1 cells, read-out: DLD-1 MTS 72 hr at 10 μM
[2] = Homo sapiens, KATO III, 72 h, KATO III cells, read-out: KATO III MTS 72 hr at 10 μM
[3] = Homo sapiens, MDA-MB-231, 72 h, MDA-MB-231 cells, read-out: MDA-MB-231 MTS 72 hr at 10 μM
[4] = Homo sapiens, NCI-H1299, 72 h, NCI-H1299 cells, read-out: NCI-H1299 MTS 72 hr at 10 μM
[5] = PaCa-2, 72 h, PACA-2 cells, read-out: PACA-2 MTS 72 hr at 10 μM

Structure (SMILES)	inhibition at 10 µM [1] [%]	inhibition at 10 µM [2] [%]	inhibition at 10 µM [3] [%]	inhibition at 10 µM [4] [%]	inhibition at 10 µM [5] [%]
CCc1ccccc1NC(=O)N1CC(Nc2nc(N)nc3[nH]ncc23)Cc2ccccc21 (stereo not shown) [Compound 107, 3-(6-amino-1H-pyrazolo[3,4-d]pyrimidin-4-ylamino)-N-(2-ethylphenyl)-3,4-dihydroquinoline-1(2H)-carboxamide]	< 50	< 50	< 50	< 50	< 50
Nc1nc(NC2Cc3ccccc3N(C(=O)COc3cccc(Cl)c3)C2)c2cn[nH]c2n1 (stereo not shown) [Compound 93, 1-(3-(6-amino-1H-pyrazolo[3,4-d]pyrimidin-4-ylamino)-3,4-dihydroquinolin-1(2H)-yl)-2-(3-chlorophenoxy)ethanone]	< 50	< 50	< 50	< 50	< 50
Nc1nc(NC2CCN(S(=O)(=O)c3ccc(F)c(Cl)c3)c3ccccc3C2)c2cn[nH]c2n1 (stereo not shown) [Compound 181, N4-{1-[(3-chloro-4-fluorophenyl)sulfonyl]-2,3,4,5-tetrahydro-1H-1-benzazepin-4-yl}-1H-pyrazolo[3,4-d]pyrimidine-4,6-diamine]	< 50	< 50	< 50	< 50	50 to 79
Nc1nc(NC2Cc3ccccc3N(C(=O)Nc3ccccc3Cl)C2)c2cn[nH]c2n1 (stereo not shown) [Compound 118, 3-(6-amino-1H-pyrazolo[3,4-d]pyrimidin-4-ylamino)-N-(2-chlorophenyl)-3,4-dihydroquinoline-1(2H)-carboxamide]	< 50	< 50	< 50	< 50	< 50
Cn1cnc(S(=O)(=O)N2CC(Nc3nc(N)nc4[nH]ncc34)Cc3ccccc32)c1 (stereo not shown) [Compound 38, N4-(1-(1-methyl-1H-imidazol-4-ylsulfonyl)-1,2,3,4-tetrahydroquinolin-3-yl)-1H-pyrazolo[3,4-d]pyrimidine-4,6-diamine]	< 50	< 50	< 50	< 50	< 50
Nc1nc(NC2Cc3ccccc3N(Cc3ccccc3OCc3c(Cl)cccc3Cl)C2)c2cn[nH]c2n1 (stereo not shown) [Compound 152, N4-(1-{2-[(2,6-dichlorobenzyl)oxy]benzyl}-1,2,3,4-tetrahydroquinolin-3-yl)-1H-pyrazolo[3,4-d]pyrimidine-4,6-diamine]	> 79	50 to 79	50 to 79	< 50	< 50
COc1ccc(Oc2ccccc2CN2CC(Nc3nc(N)nc4[nH]ncc34)Cc3ccccc32)cc1 (stereo not shown) [Compound 153, N4-{1-[2-(4-methoxyphenoxy)benzyl]-1,2,3,4-tetrahydroquinolin-3-yl}-1H-pyrazolo[3,4-d]pyrimidine-4,6-diamine]	50 to 79	50 to 79	< 50	< 50	< 50
COc1cccc(CN2CC(Nc3nc(N)nc4[nH]ncc34)Cc3ccccc32)c1F (stereo not shown) [Compound 137, N4-[1-(2-fluoro-3-methoxybenzyl)-1,2,3,4-tetrahydroquinolin-3-yl]-1H-pyrazolo[3,4-d]pyrimidine-4,6-diamine]	> 79	> 79	> 79	> 79	> 79
Nc1nc(NC2Cc3ccccc3N(S(=O)(=O)c3ccc(NC(=O)Nc4cc(F)cc(C(F)(F)F)c4)cc3)C2)c2cn[nH]c2n1 (stereo not shown) [Compound 197, 1-[4-({3-[(6-amino-1H-pyrazolo[3,4-d]pyrimidin-4-yl)amino]-3,4-dihydroquinolin-1(2H)-yl}sulfonyl)phenyl]-3-[3-fluoro-5-(trifluoromethyl)phenyl]urea]	> 79	> 79	> 79	> 79	> 79
Nc1nc(NC2Cc3ccccc3N(C(=O)C3CCCCC3)C2)c2cn[nH]c2n1 (stereo not shown) [Compound 84, (3-(6-amino-1H-pyrazolo[3,4-d]pyrimidin-4-ylamino)-3,4-dihydroquinolin-1(2H)-yl)(cyclohexyl)methanone]	< 50	< 50	< 50	< 50	< 50
Nc1nc(NC2Cc3ccccc3N(S(=O)(=O)c3cccc(NC(=O)Nc4c(Cl)cccc4Cl)c3)C2)c2cn[nH]c2n1 (stereo not shown) [Compound 208, 1-[3-({3-[(6-amino-1H-pyrazolo[3,4-d]pyrimidin-4-yl)amino]-3,4-dihydroquinolin-1(2H)-yl}sulfonyl)phenyl]-3-(2,6-dichlorophenyl)urea]	< 50	< 50	< 50	< 50	50 to 79
COc1ccc(CN2CC(Nc3nc(N)nc4[nH]ncc34)Cc3ccccc32)cc1OCc1ccccc1 (stereo not shown) [Compound 160, N4-{1-[3-(benzyloxy)-4-methoxybenzyl]-1,2,3,4-tetrahydroquinolin-3-yl}-1H-pyrazolo[3,4-d]pyrimidine-4,6-diamine]	> 79	> 79	< 50	< 50	> 79
COc1ccc(CN2CC(Nc3nc(N)nc4[nH]ncc34)Cc3ccccc32)cc1OC1CCCC1 (stereo not shown) [Compound 162, N4-{1-[3-(cyclopentyloxy)-4-methoxybenzyl]-1,2,3,4-tetrahydroquinolin-3-yl}-1H-pyrazolo[3,4-d]pyrimidine-4,6-diamine]	< 50	< 50	< 50	< 50	< 50
Cc1ccccc1CNC(=O)N1CC(Nc2nc(N)nc3[nH]ncc23)Cc2ccccc21 (stereo not shown) [Compound 111, 3-(6-amino-1H-pyrazolo[3,4-d]pyrimidin-4-ylamino)-N-(2-methylbenzyl)-3,4-dihydroquinoline-1(2H)-carboxamide]	< 50	< 50	< 50	< 50	< 50
Nc1nc(NC2Cc3ccccc3N(C(=O)c3cc(F)cc(F)c3F)C2)c2cn[nH]c2n1 (stereo not shown) [Compound 92, (3-(6-amino-1H-pyrazolo[3,4-d]pyrimidin-4-ylamino)-3,4-dihydroquinolin-1(2H)-yl)(2,3,5-trifluorophenyl)methanone]	> 79	> 79	> 79	50 to 79	> 79
COc1cc(C)c(S(=O)(=O)N2CC(Nc3nc(N)nc4[nH]ncc34)Cc3ccccc32)c(C)c1C (stereo not shown) [Compound 72, N4-(1-(4-methoxy-2,3,6-trimethylphenylsulfonyl)-1,2,3,4-tetrahydroquinolin-3-yl)-1H-pyrazolo[3,4-d]pyrimidine-4,6-diamine]	> 79	> 79	50 to 79	< 50	> 79
Nc1nc(NC2Cc3ccccc3N(S(=O)(=O)c3cc(Cl)cc(Cl)c3)C2)c2cn[nH]c2n1 (stereo not shown) [Compound 36, N4-(1-(3,5-dichlorophenylsulfonyl)-1,2,3,4-tetrahydroquinolin-3-yl)-1H-pyrazolo[3,4-d]pyrimidine-4,6-diamine]	< 50	50 to 79	< 50	< 50	< 50
COC(=O)CCc1ccc(S(=O)(=O)N2CC(Nc3nc(N)nc4[nH]ncc34)Cc3ccccc32)cc1 (stereo not shown) [Compound 73, methyl 3-(4-(3-(6-amino-1H-pyrazolo[3,4-d]pyrimidin-4-ylamino)-3,4-dihydroquinolin-1(2H)-ylsulfonyl)phenyl)propanoate]	< 50	< 50	< 50	< 50	< 50
Nc1nc(NC2Cc3ccccc3N(Cc3ccc4nccnc4c3)C2)c2cn[nH]c2n1 (stereo not shown) [Compound 133, N4-[1-(quinoxalin-6-ylmethyl)-1,2,3,4-tetrahydroquinolin-3-yl]-1H-pyrazolo[3,4-d]pyrimidine-4,6-diamine]	< 50	< 50	< 50	< 50	< 50
Cc1cccc(NC(=O)Nc2ccc(S(=O)(=O)N3CC(Nc4nc(N)nc5[nH]ncc45)Cc4ccccc43)cc2)c1 (stereo not shown) [Compound 195, 1-[4-({3-[(6-amino-1H-pyrazolo[3,4-d]pyrimidin-4-yl)amino]-3,4-dihydroquinolin-1(2H)-yl}sulfonyl)phenyl]-3-(3-methylphenyl)urea]	> 79	> 79	> 79	< 50	> 79
